Test results taken from US10351621B2, “Anti-histone therapy in acute kidney injury” (Immunomedics, Inc., priority 2014, dated 2019).
Entries after “also recorded” stand apart in the source; their conditions may differ.

Key:
human neutrophils = experiment: In vitro NET formation in neutrophils stimulated by PMA or necrotic TCs media; assay type: cell-based; settings: PAD inhibitor 200 μM; PMA 25 nM or necrotic TCs media
Experimental: Neutrophils were isolated from human healthy volunteers using standard dextran sedimentation followed by Ficoll-Hypaque density centrifugation procedures (Brinkmann et al., 2004, Science 303:1532-1535). Blood donors provided written informed consent forms approved by the local ethical committee. Neutrophils were suspended in RPMI medium (2×10^5˜2×10^6 cell/ml) and seeded into 8-well microns slides or 12˜96-well plates (Ibidi, Martinsried, Germany) in a 5% carbon dioxide atmosphere at 37° C. for 30 minute before stimulation. The neutrophils were placed in normal or hypoxia condition (1% oxygen) for 3, 6, or 24 hours, or stimulated by Phorbol 12-myristate 13-acetate (PMA, 25 nM, Sigma-Aldrich), total calf thymus histones (10, 50, or 100 μg/ml), and necrotic conditioned media from TCs (control, hypoxia, H2O2 stimulation) for 3-4 hours. […]
(§1) In human neutrophil experiments, NETs were quantified by the MPO-DNA sandwich ELISA method using anti-DNA abs (Roche, Mannheim, Germany) and anti-human MPO abs (AbD Serotec) as described (Nakazawa, 2014, J Am Soc Nephrol 25:990-7). In mouse neutrophils experiments, BAL NETs (undiluted) and plasma NETs (×2 diluted in PBS) were evaluated by NE-DNA complex using anti-DNA abs and anti-mouse NE abs (Santa Cruz) as described (Sayah et al., 2015, Am J Respir Crit Care Med 191:455-63). The CitH3 positive NETs were quantified using ImageJ software.

HK-2 cells = experiment: NETs cytotoxicity to TCs (conditioned NETs media, LDH assay); assay type: cell-based, human; settings: 20 h after addition; neutrophils pre-treated with PAD inhibitor 200 μM
Experimental: Neutrophils were stimulated by PMA, histones, or necrotic TCs derived conditioned media and 3 hours after incubation the supernatant was replaced with fresh media (RPMI), and the bottom NETs were collected to avoid the contamination of the media with exogenous PMA or necrotic TCs or histones as previously described (Najmeh et al., 2015, J Vis Exp 16:98). After centrifugation (1200 rpm, 5 min), the supernatants were applied to TCs (1:1). At 20 hours after addition of conditioned NETs media, TCs injury was evaluated by LDH assay. To investigate whether the formed NETs affect fresh neutrophils, conditioned NETs media was applied to fresh neutrophils and 4 h after incubation, additional NET formation in fresh neutrophils was evaluated by immunostaining.
A cell death detection (TUNEL) kit (Roche) was used to quantify dead cells in accordance with the manufacturer's instructions. Systemic dead cell derived DNAs in plasma were quantified by PICOGREEN® dsDNA assay kit (Thermo Fisher Scientific). In vitro, cytotoxicity was evaluated by LDH assay (Roche).

[1] = test system: bilateral IRI kidney mice; experiment: Bilateral IRI kidney model mice (post-ischemic AKI); assay type: in vivo; settings: ischemia 35 min, reperfusion 24 h
Experimental: C57BL/6N male mice were procured from Charles River Laboratories (Sulzfeld, Germany). 6-8 week-old mice (N=5-14) were anesthetized before renal pedicle clamping (unilateral: 15, 25, 35, or 45 min) with a microaneurysm clamp via flank incisions (Medicon, Tuttlingen, Germany). Body temperature was maintained at between 37° C. and 38° C. throughout the procedure by placing the mice on a heating pad. After clamp removal, recovery of blood flow to the kidney was confirmed as evidenced by returning to its original color, before closing the wound. To maintain fluid balance, all mice were supplemented with 0.5 ml of 0.9% NaCl administered peritoneally. Mice were killed after 0 min, 15 min, 30 min, 6 h, 12 h, 15 h, 24 h, 2 d, 3 d, 7 d and 10 days after surgery. Bilateral IRI mice (ischemia 35 min, reperfusion 24 h) were treated with PAD inhibitor (20 mg/kg, intraperitoneal injection; i.p: CALBIOCHEM®), anti-histone IgGs (20 mg/kg, i.p; clone BWA3; IMMUNOMEDICS®, Morris Plains, N.J.), necrosis inhibitor combination (Necrostatinl/Enzo 1.65 mg/kg i.p, Ferrostatin/CALBIOCHEM®, 2 mg/kg i.p, Ciclosporin/Novartis 10 mg/kg, i.v) 2 hours before IRI surgery. Neutrophil depletion was performed as described previously (Huang et al., 2015, Hepatology 62:600-14) with an i.p. injection of 500 μg anti-Ly6G IgGs (1A8) (BIOXCELL®) or control IgGs 24 and 2 hours before IRI surgery.
For immunofluorescence, the tissues after sacrifice were fixed with 4% paraformaldehyde for 2 hours, dehydrated with 30% sucrose for 24 hours at 4° C., frozen in OCT (TISSUE-TEK®, OCT compounds, SAKURA®) and cryosectioned (5 μm thick). The CitH3 positive NETs and TUNEL positive necrotic cells were quantified using ImageJ software.
For immunostaining, rat anti-mouse Ly6b (neutrophils) ab (AbD Serotec, Oxford, United Kingdom), rabbit citrullinated histone 3 ab (Abcam, Cambridge, United Kingdom), or goat anti neutrophil elastase ab (Santa Cruz Biotechnology, USA) were used. To count the positive cells, 3 high-power fields (100×) were analyzed. BUN and creatinine were measured using urea or creatinine FS kits (DiaSys Diagnostic Systems, Holzheim, Germany) according to the manufacturer's protocols. Mice plasma was analysed for IL-6 and TNF cytokine secretion by ELISA (BD Pharmingen, San Diego, Calif.). Plasma histone was analyzed by western blotting. To prepare a control model with high concentration of histone, lipopolysaccharide (LPS, 20 mg/kg, i.p) was injected into WT mice (8 weeks age, male), and blood samples were taken 6 hours after LPS injection (Li et al., 2011, Surgery 150:442-51). Bronchoalveolar lavage fluid (BAL) in IRI mice was performed as previously described (Sayah et al., 2015, Am J Respir Crit Care Med 191:455-63). The BAL cell number and supernatant NETs were evaluated by cell counter and NE-DNA complexes ELISA, respectively.
as §1

[2] = test system: IRI-induced kidney damage; settings: chemical inhibitors of necroptosis, ferroptosis, MPT-RN; cited from earlier work
DDD of PKA = DDD of PKA (Homo sapiens, UniProt P13861); settings: cited from earlier work
[3] = test system: RII and RI isoforms of PKA; settings: Gold et al. 2006; cited from earlier work
[4] = test system: glomerular endothelial cells, podocytes, and parietal epithelial cells; experiment: Histone killing of glomerular cells (summary); assay type: cell-based, mouse; settings: histones from calf thymus or released by neutrophils undergoing NETosis
Experimental: Mouse glomerular endothelial cells (GEnC (46)), podocytes (47)), and parietal epithelial cells (PECs, (48)) were cultured in 96 well plates with RPMI media without FCS and PS and allowed to adhere overnight. The cells were stimulated with the different concentrations of total calf thymus histones (10, 20, 30, 40, 50 and 100 μg/ml) with or without histone antibody for another 18-20 h. Cytotoxicity assay was performed using Promega CELLTITER 96® non-radioactive cell proliferation assay (MTT Assay Kit, Mannheim, Germany). Glomerular cells were also incubated with histones with or without anti-histone IgG, heparin and/or aPC. LDH assay using cytotoxicity detection kit (Roche Diagnostics, Mannheim, Germany) was used to assess cell death.

PECs = experiment: Histone-induced activation of parietal epithelial cells; assay type: cell-based, mouse
Text: Mitogenic plasma proteins leaking from injured glomerular capillaries cause PEC hyperplasia and glomerular crescent formation (Ryu et al., 2012, J Pathol 228:482; Smeets et al., 2009, J Am Soc Nephrol 20:2593; Smeets et al., 2009, J Am Soc Nephrol 20:2604).
Previous reports documented that heparin and recombinant activated protein C (aPC) also block histone toxicity (Xu et al., 2009, Nat Med 15:1318; Wildhagen et al., 2013, Blood 123:1098). […] Thus, extracellular histones activate PECs in a TLR2/4-dependent manner, a process that may act synergistically with other triggers of PEC hyperplasia during crescent formation and that can be blocked by anti-histone IgG, aPC or heparin.

glomeruli = experiment: Histone toxicity on glomeruli ex vivo; assay type: cell-based, mice
Text: Whether glomerular toxicity of extracellular histones is TLR2/4-dependent is not clear. To answer this question we exposed glomeruli isolated from wild type and Tlr2/4-deficient mice to histones ex vivo. […] We also studied the effects of extracellular histones on glomeruli in vivo. Because intravenous histone injection kills mice immediately by pulmonary microvascular injury (Xu et al., 2009, Nat Med 15:1318), we injected histones directly into the left renal artery in anaesthetized mice. Unilateral histone injection caused glomerular lesions within 24 hours ranging from minor endothelial fibrinogen positivity to thrombotic microangiopathy and global glomerular necrosis (not shown). The contralateral kidney remained unaffected (not shown).

[5] = test system: GBM antiserum-induced glomerulonephritis in mice; experiment: Anti-GBM nephritis model, delayed onset of treatment (established disease); assay type: in vivo
Experimental: C57BL/6 mice were procured from Charles River (Sulzfeld, Germany). 6-8 week old mice received an intravenous injection of 100 μl of anti-GBM serum (sheep anti-rat glomeruli basement membrane serum procured from Probetex INC, PTX-001). Urine samples were collected at different time points after antiserum injection to evaluate the functional parameters of kidney damage. On day 7 the mice were sacrificed by cervical dislocation to collect plasma and kidney tissue. Kidneys were kept at −80° C. for protein isolation and in RNALATER® solution at −20° C. for RNA isolation. A part of the kidney was also kept in formalin to be embedded in paraffin for histological analysis (Teixeira et al., 2005, Kidney Int 67:514B). We treated groups of mice either with 20 mg/kg, i.p. control IgG or anti-histone antibody (clone BWA-3) to neutralize the effects of extracellular histones.
Renal sections of 2 μm were stained with periodic acid-Schiff reagent. Glomerular abnormalities were scored in 50 glomeruli per section by a blinded observer. The following criteria were assessed in each of the 50 glomeruli and scored as segmental or global lesions if less or more than 50% of the glomerular tuft were affected by focal necrosis and capsule adhesions. Cellular crescents were assessed separately when more than a single layer of PECs were present around the inner circumference of Bowman' s capsule. Immunostaining was performed as described using the following primary antibodies: for WT-1/nephrin, neutrophils (Serotec, Oxford, UK), Mac-2 (Cedarlane, Ontario, Canada), TNF-α (Abcam, Cambridge, UK) and fibrinogen (Abcam, Cambridge, UK). Stained glomerular cells were quantified in 50 glomeruli per section.
We mext examined whether histone neutralization could be therapeutic in established disease. […] In another series of experiments we initiated anti-histone IgG, heparin, and aPC treatments 24 hours after GBM antiserum injection, a time point where massive proteinuria and elevated BUN were already established (not shown). […]

[6] = in vivo; cited from earlier work

DDD of PKA, sequence (P13861 2-45 limits assumed): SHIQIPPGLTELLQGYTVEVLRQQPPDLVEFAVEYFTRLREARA

Compound: NC(=O)[C@H](CCCN=C(N)CCl)NC(=O)c1ccccc1 [PAD inhibitor, Cl-amidine]
- induced NET formation in neutrophils (MPO-DNA complex of supernatants) (human neutrophils): abrogated
- tubular cell injury by conditioned NETs media (LDH assay) (HK-2 cells): abrogated; also recorded: reduced the damage of TCs
- NET components in plasma [1]: substantially reduced
- expression of AKI marker genes [1]: significantly reduced
- renal function (plasma creatinine, plasma urea) [1]: significantly reduced
- tissue necrotic area / tubular necrosis ([1]; PAS and TUNEL staining): significantly reduced
- protective effect on IRI kidney (overall) ([1]; listed as NET inhibitor): ameliorates
- protective effect on IRI kidney (overall) ([1]; listed as inhibitor of NET formation): protected
- abundance of NETs in the post-ischemic kidney ([1]; treated before surgery): substantially reduced

Compound: CCOC(=O)c1ccc(NC2CCCCC2)c(N)c1 [ferrostatin 1]
- kidney injury [2]: did not completely prevent

Compound: CN1C(=O)C(Cc2c[nH]c3ccccc23)NC1=S (stereo not shown) [necrostatin 1]
- kidney injury [2]: did not completely prevent

Compound: CC[C@H]1C[C@H](C)[C@@]2(NC1=O)O[C@@H](C[C@H](O)[C@@H](C)CC/C=C/C=C(\C)[C@@H]1C/C=C/C=C/[C@H](O)[C@H](C)[C@@H](O)[C@@H](CCC(C)=O)C(=O)N[C@@H](C(C)C)C(=O)N[C@@H](Cc3cccc(O)c3)C(=O)N3CCC[C@H](N3)C(=O)O1)[C@H](C)[C@H](O)[C@@H]2C [sanglifehrin A]
- kidney injury [2]: did not completely prevent

Compound: RII selective AD sequence, SEQ ID NO:21 QIEYLAKQIVDNAIQQA [AKAP-IS]
- Kd (DDD of PKA; Alto et al. 2003, read-out: binding constant for DDD): 0.4 nM
- affinity for the MI DDD sequence (DDD of PKA; Hundsrucker et al. 2006): particularly high affinities

Compound: SuperAKAP-IS: SEQ ID NO:30 QIEYVAKQIVDYAIHQA
- selectivity for the RII isoform of PKA compared with the RI isoform [3]: five order of magnitude higher

Compound: heparin
- killing of glomerular cells by histones / extracellular histone toxicity in vitro [4]: prevented
- PEC activation by histones (PECs): protective effect
- histone toxicity on glomeruli ex vivo (glomeruli): completely blocked
- renal dysfunction and structural injury during severe GN ([5]; delayed onset of histone blockade): protects
- severe glomerulonephritis in mice with established disease ([5]; mouse, in vivo): abrogated
- all aspects of GBM antiserum-induced severe GN ([5]; pre-emptive as well as delayed onset of histone neutralization): abrogates

Compound: veltuzumab: humanized IgG1 antibody against CD20
- immunogenicity in subjects compared with rituximab [6]: less immunogenic
